According to PMC11249646, “Small-Molecule Disruptors of the Interaction between Calcium- and Integrin-Binding Protein 1 and Integrin αIIbβ3 as Novel Antiplatelet Agents” (ACS Pharmacology & Translational Science, 2024):
Where two headings read alike, the source gives them in different places.

Legend:
[1] = target: T1, CIB1 and αIIb interaction (CIB1-GST : F-αIIb peptide) (Homo sapiens, UniProt Q99828); experiment: FP assay, 1536-well qHTS format (primary and confirmatory screen); assay type: binding; conditions: for CONFIRMATORY SCREEN Curve Class / Curve Class (confirmatory screen): qHTS curve class
T1 construct: made in house; host or cells: BL-21 plus RIL cells (E. coli)
T1 sequence (Q99828 1-191): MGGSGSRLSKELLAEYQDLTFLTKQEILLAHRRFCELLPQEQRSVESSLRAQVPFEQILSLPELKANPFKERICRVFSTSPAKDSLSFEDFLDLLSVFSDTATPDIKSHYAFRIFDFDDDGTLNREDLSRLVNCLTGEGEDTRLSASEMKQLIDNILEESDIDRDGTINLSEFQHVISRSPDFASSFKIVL

[2] = target: T2, GST-CIB1 : F-scrambled peptide (Homo sapiens, UniProt Q99828); experiment: FP scrambled-peptide counter screen, 1536-well format; assay type: binding; conditions: for COUNTERSCREEN Curve Class / Curve Class (counterscreen): qHTS curve class; for IC50: read-out: IC50 [μM] (counterscreen)
T2 construct: made in house; host or cells: BL-21 plus RIL cells (E. coli)
T2 sequence (Q99828 1-191): T1 sequence (Q99828 1-191)

[3] = qHTS FP screen hits, Table S2, negative = inhibition
[4] = qHTS FP screen hits, Table S2, read-out: IC50
[5] = Table S3, confirmatory screen, a negative sign marks inhibitory curves
[6] = Table S3, confirmatory screen, negative = inhibition
[7] = qHTS primary screen hits, Table S2, negative = inhibition
[8] = qHTS primary screen hits, Table S2, negative sign = inhibitory curve, several classes where COUNT > 1
[9] = qHTS primary screen hits, Table S2, read-out: IC50
[10] = Table S3, counterscreen, negative = inhibition
[11] = Table S3, confirmatory screen, YES/NO call
[12] = Table S3, confirmatory screen, read-out: IC50 [μM] (confirmatory screen)
[13] = Table S3, counterscreen, a negative sign marks inhibitory curves
[14] = confirmatory screen, negative sign = inhibitory curve
[15] = qHTS FP screen hits, Table S2, one class per curve where COUNT > 1, negative sign = inhibitory curve
[16] = counterscreen, negative sign = inhibitory curve

| SMILES | CONFIRMATORY SCREEN Efficacy (%) ([1]; confirmatory screen) | CONFIRMATORY SCREEN Curve Class ([1]; confirmatory screen) | Efficacy (%) [1, 3] [%] | COUNTERSCREEN Efficacy (%) ([2]; counterscreen) | COUNTERSCREEN Curve Class ([2]; counterscreen) | Curve Class (confirmatory screen) [1, 5] | Efficacy (%) (confirmatory screen) [1, 6] | Efficacy (%) [1, 7] [%] | Curve Class [1, 8] | IC50 [1, 9] [µM] | Efficacy (%) (counterscreen) [2, 10] | IC50 ([2]; Table S3, counterscreen) [µM] | further results |
| --- | --- | --- | --- | --- | --- | --- | --- | --- | --- | --- | --- | --- | --- |
| O=C(O)C(F)(F)F.O=C(O)c1csc(-n2nc(-c3ccc(F)c(F)c3)c3cccc(O)c32)n1 [NCGC00356386-01] | -21 | 4 | -22 | 0 | 4 |  |  |  |  |  |  |  | IC50 [1, 4]: 3.2 µM |
| O=C(Nc1nc(-c2ccccc2)cs1)c1ccccc1NS(=O)(=O)c1ccc(F)cc1.O=C(O)C(F)(F)F [NCGC00247844-02] |  |  |  |  |  | 3 | 48 | -24 | -1.4 | 17.8 | 102 | 50.1 |  |
| Cc1nc(C(=O)NCC(=O)O)c(O)c2ccc(Oc3ccccc3)cc12 [NCGC00346527-01] | -26 | 4 |  | 0 | 4 |  |  | -24 |  | 38.5 |  |  | Curve Class ([1]; qHTS primary screen hits, Table S2, negative sign = inhibitory curve): -2.4 |
| O=C(c1cc(O)c(O)c(O)c1)c1ccc(O)c(O)c1O [NCGC00249050-02] |  |  |  |  |  | -2.1 | -86 | -42 | -2.2 | 39.8 | -99 | 25.1 | Confirm? (confirmatory screen) [1, 11]: YES; IC50 [1, 12]: 25.1 µM; Curve Class (counterscreen) [2, 13]: -1.1 |
| COc1ccc2c(=O)n3nc(Nc4cccc(N5CCN(C)CC5)c4)sc3nc2c1.Cl [NCGC00187813-01] | -43 | 4 |  | -16 | 4 |  |  | -22 | -1.4 | 17.8 |  |  |  |
| COc1ccccc1Nc1cc2ccccc2c(O)n1 [NCGC00183215-01] |  |  |  |  |  | -2.1 | -92 | -67 | -2.2 | 50.1 | -136 | 35.5 | Confirm? (confirmatory screen) [1, 11]: YES; IC50 [1, 12]: 39.8 µM; Curve Class (counterscreen) [2, 13]: -2.1 |
| O=C(O)c1ccc(-n2cccc2/C=C2\SC(=O)N(Cc3cccc(Cl)c3)C2=O)cc1 [NCGC00182735-01] |  |  | -66 |  |  |  |  |  |  |  |  |  | Efficacy (%) (confirmatory screen) ([1]; confirmatory screen): -109%; Confirm? (confirmatory screen) ([1]; confirmatory screen, YES/NO): YES; Curve Class (confirmatory screen) [1, 14]: -2.1; Curve Class [1, 15]: -2.2; Efficacy (%) (counterscreen) ([2]; counterscreen): -61%; Curve Class (counterscreen) [2, 16]: -2.2; IC50 ([2]; counterscreen): 56.2 µM |
| O=C(O)C(F)(F)F.c1ccc(-n2ccc(-c3nnc4n3CCCCC4)c2)cc1 [NCGC00249645-01] |  |  | -91 |  |  |  |  |  |  |  |  |  | Efficacy (%) (confirmatory screen) ([1]; confirmatory screen): -104%; Confirm? (confirmatory screen) ([1]; confirmatory screen, YES/NO): YES; Curve Class (confirmatory screen) [1, 14]: -2.1; IC50 ([1]; confirmatory screen, read-out: IC50 [μM] (confirmatory screen)): 50.1 µM; Curve Class [1, 15]: -2.2; IC50 [1, 4]: 79.4 µM; Efficacy (%) (counterscreen) ([2]; counterscreen): -62%; Curve Class (counterscreen) [2, 16]: -3; IC50 ([2]; counterscreen): 89.1 µM |
